Data on 14 compounds can be found in patent publication US6756376B1, “Tricyclic azaindolizine derivatives having an sPLA2-inhibitory activities” (Shionogi & Co., Ltd., priority 1999, dated 2004).

For one series, the target named is T1, human type II sPLA2 (Homo sapiens, UniProt P14555).
T1 sequence (P14555 21-144): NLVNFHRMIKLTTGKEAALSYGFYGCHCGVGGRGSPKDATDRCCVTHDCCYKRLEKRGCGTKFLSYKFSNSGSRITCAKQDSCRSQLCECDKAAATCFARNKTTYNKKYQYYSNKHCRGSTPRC
As to the kind of experiment: Inhibition test of human secretory phospholipase A2, chromogenic assay, Type II enzyme. The conditions noted are these: human type II enzyme 50 ng/well, absorbance change 30 min, OD 405 nm. The series is classed as biochemical. The text has this:
(§1) In order to identify and evaluate an inhibitor of recombinant human secretory phospholipase A2, the following chromogenic assay is utilized. The assay herein has been applied for high volume screening wherein 96 well microtiterplate is used. A general explanation for such assay is described in “Analysis of Human Synovial Fluid Phospholipase A2 on Short Chain Phosphatidylcholine-Mixed Micelles: Development of a Spectrophotometric Assay Suitable for a Micortiterplate Reader” (Analytical Biochemistry, 204, pp 190-197, 1992 by Laure. J. Reynolds. Lori L. Hughes and Edward A. Dennis: the disclosure of which is incorporated herein for reference.
Type II enzyme: 1 mg of sPLA2 is dissolved in 1 ml of an enzyme buffer. Thereafter, the solution is maintained at 4° C. In the assay, 5 >l of the solution is diluted with 1995 μl of the reaction buffer to be used.
(§2) 1) 0.106 ml of the substrate solution is put in a centrifugal tube, and nitrogen gas is jetted to remove the solvent. 0.54 ml of Triton-X 100 is added thereto, the mixture is stirred, thereafter it is sonified in a bath type sonification to dissolve. To the resulting product are added 17.8 ml of the reaction buffer and 0.46 ml of DTNB, and 0.18 ml each of the admixture is poured to wells of the 96 well microtiterplate.
(§3) 2) 10 μl of a test compound (or solvent blank) are added in accordance with alignment of plates which has been previously set.
(§4) 3) Incubation is effected at 40° C. for 15 minutes.
(§5) 4) 90 ng/well in case of human type I enzyme, 50 ng/well in case of human type II enzyme, 40 μl/well in case of human type V enzyme, 15 μl/well in case of human type X enzyme were reacted.
(§6) 5) Changes in absorbancy for 30 minutes for humane type I, type II, and type X enzyme and for 45 min for human type V enzyme, are measured by a plate reader, and inhibition activity was calculated (OD: 405 nm).
(§7) 6) IC50 was determined by plotting log concentration with respect to inhibition values within 10% to 90% inhibiting range.

In a further series the target is T2, human type X sPLA2 (Homo sapiens, UniProt O15496).
T2 construct: made in house; unpurified culture supernatant used
T2 sequence (O15496 43-165): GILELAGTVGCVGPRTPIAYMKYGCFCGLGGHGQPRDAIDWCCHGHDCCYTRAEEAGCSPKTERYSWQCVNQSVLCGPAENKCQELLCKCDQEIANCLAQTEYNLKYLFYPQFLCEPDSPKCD
As to the kind of experiment: Inhibition test of human secretory phospholipase A2, chromogenic assay, Type X enzyme. The format is biochemical. The conditions noted are these: human type X enzyme (CHO supernatant) 15 μl/well, absorbance change 30 min, OD 405 nm. The text has this:
(§8) In order to identify and evaluate an inhibitor of recombinant human secretory phospholipase A2, the following chromogenic assay is utilized. The assay herein has been applied for high volume screening wherein 96 well microtiterplate is used. A general explanation for such assay is described in “Analysis of Human Synovial Fluid Phospholipase A2 on Short Chain Phosphatidylcholine-Mixed Micelles: Development of a Spectrophotometric Assay Suitable for a Micortiterplate Reader” (Analytical Biochemistry, 204, pp 190-197, 1992 by Laure. J. Reynolds. Lori L. Hughes and Edward A. Dennis: the disclosure of which is incorporated herein for reference. Type V and Type X enzymes: cDNA sequences encoding human type V and Type X sPLA2 (Chen et., al., J. Biol. Chem., 1994. 269, 2365-2368 and Cupillard et., al., J. Biol. Chem., 1997, 272, 15745-15762) were inserted into downstream of promoter of pSVL SV40 Late Promoter Expression Vector (Amersham Pharmacia Biotech K. K.), mammalian cell expression vector, forwardly. The recombinant expression vectors were transfected into CHO host cells by LipofectAMINE regent (Gibco BRL.) according to the attached manual and the cells expressed each of human type V and type X sPLA2 stably. After each expressing cells were cultured in σ-MEM medium including 10% fetal serum albumin for 3 days, the cells supernatant were collected and measured enzymatic activity. 1) 0.106 ml of the substrate solution is put in a centrifugal tube, and nitrogen gas is jetted to remove the solvent. 0.54 ml of Triton-X 100 is added thereto, the mixture is stirred, thereafter it is sonified in a bath type sonification to dissolve. To the resulting product are added 17.8 ml of the reaction buffer and 0.46 ml of DTNB, and 0.18 ml each of the admixture is poured to wells of the 96 well microtiterplate. 2) 10 μl of a test compound (or solvent blank) are added in accordance with alignment of plates which has been previously set. 3) Incubation is effected at 40° C. for 15 minutes. 4) 90 ng/well in case of human type I enzyme, 50 ng/well in case of human type II enzyme, 40 μl/well in case of human type V enzyme, 15 μl/well in case of human type X enzyme were reacted. 5) Changes in absorbancy for 30 minutes for humane type I, type II, and type X enzyme and for 45 min for human type V enzyme, are measured by a plate reader, and inhibition activity was calculated (OD: 405 nm). 6) IC50 was determined by plotting log concentration with respect to inhibition values within 10% to 90% inhibiting range.

In the next series the target is T3, human type V sPLA2 (Homo sapiens, UniProt P39877).
T3 construct: made in house; unpurified culture supernatant used
T3 sequence (P39877 21-138): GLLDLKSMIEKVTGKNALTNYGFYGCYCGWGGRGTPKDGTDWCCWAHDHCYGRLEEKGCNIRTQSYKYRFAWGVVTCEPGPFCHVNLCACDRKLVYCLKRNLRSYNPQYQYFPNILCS
Nature of the series: Inhibition test of human secretory phospholipase A2, chromogenic assay, Type V enzyme. The series is classed as biochemical. The following applies: human type V enzyme (CHO supernatant) 40 μl/well, absorbance change 45 min, OD 405 nm.
Description: as §8

A further series has as its target human type I sPLA2 (Homo sapiens, UniProt P04054). Nature of the series: Inhibition test of human secretory phospholipase A2, chromogenic assay, Type I enzyme. The format is biochemical. The following applies: human type I enzyme 90 ng/well, absorbance change 30 min, OD 405 nm.
Description: as §1
Type I enzyme: sPLA2 solution (330 ng/μl) (described in A. Kanda et. al., Biochimica et Biophysica Acta. 1171 (1992) 1-10) is dissolved in the assay (enzyme solution 27 μl is diluted with 1973 μl of the reaction buffer).
as §2, §3, §4, §5, §6, §7

Chain of human type I sPLA2 (P04054 23-148): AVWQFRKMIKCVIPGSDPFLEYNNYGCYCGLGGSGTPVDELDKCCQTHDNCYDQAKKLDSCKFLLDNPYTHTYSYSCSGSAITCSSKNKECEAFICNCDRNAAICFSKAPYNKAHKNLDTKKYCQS

On to `Cc1cn2c(Cc3ccccc3)c3c(c2c(OC(C)C(=O)O)n1)C(C(N)=O)=CCC3` (stereo not drawn) [Compound I-13], for which the IC50 at human type II sPLA2 worked out at 19 nM; against human type X sPLA2 it was 7 nM; against human type V sPLA2 it was 4 nM; on human type I sPLA2, 93 nM.

Turning to `Cc1ccc(Cc2c3c(c4c(OCC(=O)O)cc(C)nn24)C(C(N)=O)=CCC3)cc1` [Compound I-3], the IC50 against human type II sPLA2 was 11 nM; at human type X sPLA2 it was 10 nM; against human type V sPLA2 it was 2 nM; on human type I sPLA2, 460 nM.

Turning to `Cc1cc(OC(C)C(=O)O)c2c3c(c(Cc4ccc(Cl)cc4)n2n1)CCC=C3C(N)=O` (stereo not drawn) [Compound I-6], the IC50 at human type II sPLA2 came out at 17 nM; on human type X sPLA2, 5 nM; against human type V sPLA2 it was 1 nM; against human type I sPLA2 it was 86 nM.

Regarding `Cc1cc(OCC(=O)O)c2c3c(c(Cc4ccccc4)n2n1)CCC=C3C(N)=O` [Compound I-1], the melting point is 256 to 258 °C (dec.). 7 nM corresponded to half-maximal inhibition against human type II sPLA2 (IC50). This compound also had an IC50 against human type X sPLA2 of 4 nM. Besides, at human type V sPLA2, 2 nM corresponded to half-maximal inhibition (IC50). This compound showed an IC50 at human type I sPLA2 of 170 nM.

Consider `Cc1cn2c(Cc3ccccc3)c3c(c2c(OCC(=O)O)n1)C(C(N)=O)=CCC3` [Compound I-11], for which the IC50 turned out to be 9 nM at human type II sPLA2, 6 nM at human type X sPLA2, 1 nM against human type V sPLA2 and 234 nM against human type I sPLA2.

In the case of `Cc1cn2c(CC3CCCCC3)c3c(c2c(OC(C)C(=O)O)n1)C(C(N)=O)=CCC3` (stereo not drawn) [Compound I-14], the IC50 turned out to be 14 nM against human type II sPLA2, 1 nM against human type X sPLA2, 1 nM at human type V sPLA2 and 57 nM on human type I sPLA2.

Turning to `NC(=O)C1=CCCc2c1c1c(OCC(=O)O)nccn1c2Cc1ccccc1` [Compound I-12], the IC50 against human type II sPLA2 amounted to 8 nM; on human type X sPLA2 it was 4 nM; at human type V sPLA2 it was 2 nM; against human type I sPLA2, 86 nM.

Take `Cc1cc(OC(C)C(=O)O)c2c3c(c(Cc4ccccc4)n2n1)CCC=C3C(N)=O` (stereo not drawn) [Compound I-2]: the IC50 at human type II sPLA2 was 15 nM; against human type X sPLA2, 4 nM; on human type V sPLA2, 3 nM; at human type I sPLA2 it was 79 nM.

Take `Cc1cc(OCC(=O)O)c2c3c(c(Cc4ccc(Cl)cc4)n2n1)CCC=C3C(N)=O` [Compound I-5]: the IC50 came out at 8 nM against human type II sPLA2, 6 nM against human type X sPLA2, 1 nM against human type V sPLA2 and 147 nM against human type I sPLA2.

With `COc1cccc(Cc2c3c(c4c(OCC(=O)O)cc(C)nn24)C(C(N)=O)=CCC3)c1` [Compound I-7], the IC50 against human type II sPLA2 worked out at 10 nM; against human type X sPLA2, 16 nM; at human type V sPLA2, 2 nM; at human type I sPLA2 it was 215 nM.

Take `COc1cccc(Cc2c3c(c4c(OCC(=O)O)cc(-c5ccccc5)nn24)C(C(N)=O)=CCC3)c1` [Compound I-10]: the IC50 stood at 6 nM against human type II sPLA2, 2 nM on human type X sPLA2, 0.2 nM against human type V sPLA2 and 49 nM on human type I sPLA2.

In the case of `COc1cccc(Cc2c3c(c4c(OC(C)C(=O)O)cc(C)nn24)C(C(N)=O)=CCC3)c1` (stereo not drawn) [Compound I-8], the IC50 at human type II sPLA2 stood at 23 nM; against human type X sPLA2, 12 nM; at human type V sPLA2 it was 2 nM; at human type I sPLA2, 76 nM.

For `NC(=O)C1=CCCc2c1c1c(OCC(=O)O)cc(-c3ccccc3)nn1c2Cc1ccccc1` [Compound I-9], the IC50 on human type II sPLA2 came out at 8 nM; against human type X sPLA2 it was 1 nM; at human type V sPLA2, 0.2 nM; on human type I sPLA2, 51 nM.

As to `Cc1ccc(Cc2c3c(c4c(OC(C)C(=O)O)cc(C)nn24)C(C(N)=O)=CCC3)cc1` (stereo not drawn) [Compound I-4], the IC50 is 21 nM against human type II sPLA2, 7 nM against human type X sPLA2, 2 nM against human type V sPLA2 and 139 nM against human type I sPLA2.

Usually IC50 stands for the concentration at which inhibition is half-maximal. A higher IC50 goes with a need for much substance. In general, melting point refers to the temperature of the solid-liquid transition.
